Assay results taken from ChEMBL document CHEMBL1687756 (Antimicrob Agents Chemother, 2010).

Columns and labels:
[1] = Tmax in female dog at 400 mg administered intramuscularly after 29 days; conditions: in vivo, im
[2] = Drug level in Beagle dog skin at injected site at 5 mg/kg, sc after 3 months; assay type: ADME, organism-based, Canis lupus familiaris, Zone of skin; parameters: dose 5 mg/kg, route subcutaneous; conditions: read-out: Drug uptake
[3] = Drug level in Beagle dog skin at injected site at 5 mg/kg administered intramuscularly after 6 months; assay type: ADME, organism-based, Canis lupus familiaris, Zone of skin; parameters: dose 5 mg/kg, route intramuscular; conditions: im, read-out: Drug uptake
[4] = Plasma concentration in Beagle dog at 5 mg/kg, sc after 3 months; assay type: ADME, organism-based, Canis lupus familiaris; parameters: dose 5 mg/kg, route subcutaneous
Canis familiaris [5] = experiment: Toxicity in Beagle dog assessed as white deposits at 20 mg/kg administered intramuscularly after 3 months; assay type: organism-based, Canis lupus familiaris; parameters: dose 20 mg/kg, route intramuscular; conditions: in vivo, im, 2191.5 h
[6] = Drug level in Beagle dog lymph node popliteal at 5 mg/kg administered intramuscularly after 6 months; assay type: ADME, organism-based, Canis lupus familiaris; parameters: dose 5 mg/kg, route intramuscular; conditions: im, read-out: Drug uptake
[7] = Ratio of drug level in lymph node popliteal to plasma in Beagle dog at 5 mg/kg administered intramuscularly after 1 month; assay type: ADME, organism-based, Canis lupus familiaris; parameters: dose 5 mg/kg, route intramuscular; conditions: im
[8] = Ratio of drug level in lymph node axillar to plasma in Beagle dog at 5 mg/kg, sc after 3 months; assay type: ADME, organism-based, Canis lupus familiaris; parameters: dose 5 mg/kg, route subcutaneous; conditions: axillary lymph node/plasma
[9] = Ratio of drug level in spleen to plasma in male Beagle dog at 200 mg/kg administered intramuscularly after 1 month; assay type: ADME, organism-based, Canis lupus familiaris; parameters: dose 200 mg/kg, route intramuscular; conditions: im
[10] = Drug level in Beagle dog skin at non-injected site at 5 mg/kg administered intramuscularly after 6 months; assay type: ADME, organism-based, Canis lupus familiaris, Zone of skin; parameters: dose 5 mg/kg, route intramuscular; conditions: im, read-out: Drug uptake
[11] = Ratio of drug level in spleen to plasma in Beagle dog at 5 mg/kg, sc after 3 months; assay type: ADME, organism-based, Canis lupus familiaris; parameters: dose 5 mg/kg, route subcutaneous
[12] = Ratio of drug level in spleen to plasma in male Beagle dog at 200 mg/kg, sc after 3 months; assay type: ADME, organism-based, Canis lupus familiaris; parameters: dose 200 mg/kg, route subcutaneous
[13] = Plasma concentration in female Beagle dog at 400 mg/kg administered intramuscularly after 1 month; assay type: ADME, organism-based, Canis lupus familiaris; parameters: dose 400 mg/kg, route intramuscular; conditions: im, read-out: Drug uptake
[14] = Ratio of drug level in lymph node popliteal to plasma in Beagle dog at 5 mg/kg, sc after 3 months; assay type: ADME, organism-based, Canis lupus familiaris; parameters: dose 5 mg/kg, route subcutaneous
[15] = Drug level in Beagle dog lymph node popliteal at 5 mg/kg, sc after 1 month; assay type: ADME, organism-based, Canis lupus familiaris; parameters: dose 5 mg/kg, route subcutaneous; conditions: read-out: Drug uptake
[16] = Plasma concentration in female Beagle dog at 400 mg/kg, sc after 1 month; assay type: ADME, organism-based, Canis lupus familiaris; parameters: dose 400 mg/kg, route subcutaneous; conditions: read-out: Drug uptake
Plasma [17] = experiment: (§1) Plasma concentration in Beagle dog at 5 mg/kg administered intramuscularly after 6 months; assay type: ADME, organism-based, Canis lupus familiaris; parameters: dose 5 mg/kg, route intramuscular; conditions: in vivo, im, 4383 h, BLD = below limit of detection
[18] = as §1; assay type: ADME, organism-based, Canis lupus familiaris; parameters: dose 5 mg/kg, route intramuscular; conditions: im
[19] = Plasma concentration in female Beagle dog at 200 mg/kg, sc after 1 month; assay type: ADME, organism-based, Canis lupus familiaris; parameters: dose 200 mg/kg, route subcutaneous; conditions: read-out: Drug uptake
[20] = Drug level in Beagle dog thymus at 5 mg/kg administered intramuscularly after 3 months; assay type: ADME, organism-based, Canis lupus familiaris; parameters: dose 5 mg/kg, route intramuscular; conditions: im, read-out: Drug uptake
[21] = Ratio of drug level in thymus to plasma in female Beagle dog at 200 mg/kg administered intramuscularly after 1 month; assay type: ADME, organism-based, Canis lupus familiaris; parameters: dose 200 mg/kg, route intramuscular; conditions: im
[22] = Plasma concentration in female Beagle dog at 200 mg/kg administered intramuscularly after 3 months; assay type: ADME, organism-based, Canis lupus familiaris; parameters: dose 200 mg/kg, route intramuscular; conditions: im
Plasma [23] = experiment: (§2) Plasma concentration in Beagle dog at 5 mg/kg administered intramuscularly after 3 months; assay type: ADME, organism-based, Canis lupus familiaris; parameters: dose 5 mg/kg, route intramuscular; conditions: in vivo, im, 2191.5 h, BLD = below limit of detection
[24] = as §2; assay type: ADME, organism-based, Canis lupus familiaris; parameters: dose 5 mg/kg, route intramuscular; conditions: im
Canis familiaris [25] = experiment: Toxicity in Beagle dog assessed as inflammatory signs at 20 mg/kg administered intramuscularly after 3 months; assay type: organism-based, Canis lupus familiaris; parameters: dose 20 mg/kg, route intramuscular; conditions: in vivo, im, 2191.5 h
[26] = Tmax in female dog at 200 mg administered intramuscularly after 29 days; conditions: in vivo, im
[27] = Drug level in Beagle dog lymph node popliteal at 5 mg/kg administered intramuscularly after 1 month; assay type: ADME, organism-based, Canis lupus familiaris; parameters: dose 5 mg/kg, route intramuscular; conditions: im, read-out: Drug uptake
[28] = Drug level in male Beagle dog thymus at 400 mg/kg, sc after 3 months; assay type: ADME, organism-based, Canis lupus familiaris; parameters: dose 400 mg/kg, route subcutaneous; conditions: read-out: Drug uptake
[29] = Drug level in Beagle dog lymph node axillar at 5 mg/kg, sc after 3 months; assay type: ADME, organism-based, Canis lupus familiaris; parameters: dose 5 mg/kg, route subcutaneous; conditions: axillary lymph node, read-out: Drug uptake

Cc1cc(/C=C/C#N)cc(C)c1Nc1ccnc(Nc2ccc(C#N)cc2)n1 [RILPIVIRINE]
Tmax [1]: 8.3 h | concentration at 2191.5 h [2]: 223000 ng/g | concentration at 4383 h [3]: 9.5 ng/g | concentration at 2191.5 h [4]: 3.3 ng/mL | Activity (Canis familiaris [5]): Non-toxic | concentration at 4383 h [6]: 30.7 ng/g | Kp at 730.5 h [7]: 574 | Kp at 2191.5 h [8]: 6.8 | Kp at 730.5 h [9]: 1.8 | concentration at 4383 h [10]: 6.7 ng/g | Kp at 2191.5 h [11]: 3 | Kp at 2191.5 h [12]: 2.5 | concentration at 730.5 h [13]: 118 ng/g | Kp at 2191.5 h [14]: 8.2 | concentration at 730.5 h [15]: 68.2 ng/g | concentration at 730.5 h [16]: 227 ng/g | Cp (Plasma [17]): BLD | concentration at 4383 h [18]: < 1 ng/mL | concentration at 730.5 h [19]: 71.8 ng/g | concentration at 2191.5 h [20]: 14.7 ng/g | Kp at 730.5 h [21]: 5.7 | concentration at 2191.5 h [22]: 10.1 ng/mL | Cp (Plasma [23]): BLD | concentration at 2191.5 h [24]: < 1 ng/mL | Activity (Canis familiaris [25]): Non-toxic | Tmax [26]: 4.6 h | concentration at 730.5 h [27]: 6500 ng/g | concentration at 2191.5 h [28]: 173 ng/g | concentration at 2191.5 h [29]: 22.1 ng/g
